Experimental data reported in ChEMBL document CHEMBL5252552, “Defined concatenated α6α1β3γ2 GABAA receptor constructs reveal dual action of pyrazoloquinolinone allosteric modulators” (Bioorg Med Chem, 2019).

Columns and labels:
[1] = biological target: T1, Gamma-aminobutyric acid receptor subunit alpha-1/alpha-6/beta-3/gamma-2 (Rattus norvegicus) (UniProt P18508+P30191+P62813+P63079); assay: Positive allosteric modulation of rat recombinant GABAA alpha6beta3alpha1-gamma2beta3 receptor expressed in Xenopus laevis oocytes assessed as maximal efficacy at -80 mV holding potential at 10 uM in presence of GABA EC1 to 1.5 by two-electrode voltage-clamp assay; type: cell-based; details: Oocyte, filed as positive allosteric modulator
[2] = biological target: T1, Gamma-aminobutyric acid receptor subunit alpha-1/alpha-6/beta-3/gamma-2 (Rattus norvegicus); assay: Positive allosteric modulation of rat recombinant GABAA alpha6beta3alpha1-gamma2beta3 receptor expressed in Xenopus laevis oocytes assessed as maximal efficacy at -80 mV holding potential at 100 nM in presence of GABA EC1 to 1.5 by two-electrode voltage-clamp assay; type: cell-based; details: Oocyte
[3] = biological target: T2, Gamma-aminobutyric acid receptor subunit alpha-1/beta-3/gamma-2 (Rattus norvegicus) (UniProt P18508+P62813+P63079); assay: Positive allosteric modulation of rat recombinant GABAA alpha1beta3alpha1-gamma2beta3 receptor expressed in Xenopus laevis oocytes assessed as maximal efficacy at -80 mV holding potential at 30 nM in presence of GABA EC1 to 1.5 by two-electrode voltage-clamp assay; type: cell-based; details: Oocyte
[4] = biological target: T1, Gamma-aminobutyric acid receptor subunit alpha-1/alpha-6/beta-3/gamma-2 (Rattus norvegicus); assay: Positive allosteric modulation of rat recombinant GABAA alpha6beta3alpha1-gamma2beta3 receptor expressed in Xenopus laevis oocytes assessed as maximal efficacy at -80 mV holding potential at 3 uM in presence of GABA EC1 to 1.5 by two-electrode voltage-clamp assay; type: cell-based; details: Oocyte, filed as positive allosteric modulator
[5] = biological target: T3, Gamma-aminobutyric acid receptor subunit alpha-6/beta-3/gamma-2 (Rattus norvegicus, UniProt P18508+P30191+P63079); assay: (§1) Positive allosteric modulation of rat recombinant GABAA alpha6beta3alpha6-gamma2beta3 receptor expressed in Xenopus laevis oocytes assessed as increase in GABA-induced current amplitude at -80 mV holding potential under more potent phase in presence of GABA EC1 to 1.5 by two-electrode voltage-clamp assay; type: cell-based, Oocyte
[6] = biological target: T2, Gamma-aminobutyric acid receptor subunit alpha-1/beta-3/gamma-2 (Rattus norvegicus); assay: Positive allosteric modulation of rat recombinant GABAA alpha1beta3alpha1-gamma2beta3 receptor expressed in Xenopus laevis oocytes assessed as maximal current at -80 mV holding potential under less potent phase in presence of GABA EC1 to 1.5 by two-electrode voltage-clamp assay relative to control; type: cell-based; details: Oocyte, filed as positive allosteric modulator
[7] = biological target: T1, Gamma-aminobutyric acid receptor subunit alpha-1/alpha-6/beta-3/gamma-2 (Rattus norvegicus); assay: Positive allosteric modulation of rat recombinant GABAA gamma2beta3alpha1-beta3alpha6 receptor expressed in Xenopus laevis oocytes assessed as maximal efficacy at -80 mV holding potential at 1 uM in presence of GABA EC1 to 1.5 by two-electrode voltage-clamp assay; type: cell-based; details: Oocyte, filed as positive allosteric modulator
[8] = biological target: T1, Gamma-aminobutyric acid receptor subunit alpha-1/alpha-6/beta-3/gamma-2 (Rattus norvegicus); assay: Positive allosteric modulation of rat recombinant GABAA gamma2beta3alpha1-beta3alpha6 receptor expressed in Xenopus laevis oocytes assessed as maximal efficacy at -80 mV holding potential at 3 nM in presence of GABA EC1 to 1.5 by two-electrode voltage-clamp assay; type: cell-based; details: Oocyte
[9] = biological target: T3, Gamma-aminobutyric acid receptor subunit alpha-6/beta-3/gamma-2; assay: as §1, with “less” for “more”; type: cell-based, Oocyte
[10] = biological target: T4, Gamma-aminobutyric acid receptor subunit alpha-6/beta-3/gamma-2 (Rattus norvegicus) (UniProt P18508+P30191+P63079); assay: Positive allosteric modulation of rat recombinant GABAA alpha6beta3gamma2 receptor expressed in Xenopus laevis oocytes assessed as maximal efficacy at -80 mV holding potential at 1 uM in presence of GABA EC1 to 1.5 by two-electrode voltage-clamp assay; type: cell-based; details: Oocyte, filed as positive allosteric modulator
[11] = biological target: T2, Gamma-aminobutyric acid receptor subunit alpha-1/beta-3/gamma-2 (Rattus norvegicus); assay: Positive allosteric modulation of rat recombinant GABAA alpha1beta3gamma2 receptor expressed in Xenopus laevis oocytes assessed as maximal efficacy at -80 mV holding potential at 10 uM in presence of GABA EC1 to 1.5 by two-electrode voltage-clamp assay; type: cell-based; details: Oocyte, filed as positive allosteric modulator
[12] = biological target: T1, Gamma-aminobutyric acid receptor subunit alpha-1/alpha-6/beta-3/gamma-2 (Rattus norvegicus); assay: Positive allosteric modulation of rat recombinant GABAA alpha6beta3alpha1-gamma2beta3 receptor expressed in Xenopus laevis oocytes assessed as maximal efficacy at -80 mV holding potential at 10 nM in presence of GABA EC1 to 1.5 by two-electrode voltage-clamp assay; type: cell-based; details: Oocyte
[13] = biological target: T4, Gamma-aminobutyric acid receptor subunit alpha-6/beta-3/gamma-2 (Rattus norvegicus); assay: Positive allosteric modulation of rat recombinant GABAA alpha6beta3alpha6-gamma2beta3 receptor expressed in Xenopus laevis oocytes assessed as maximal efficacy at -80 mV holding potential at 1 uM in presence of GABA EC1 to 1.5 by two-electrode voltage-clamp assay; type: cell-based; details: Oocyte, filed as positive allosteric modulator
[14] = biological target: T4, Gamma-aminobutyric acid receptor subunit alpha-6/beta-3/gamma-2 (Rattus norvegicus); assay: Positive allosteric modulation of rat recombinant GABAA alpha6beta3gamma2 receptor expressed in Xenopus laevis oocytes assessed as maximal efficacy at -80 mV holding potential at 10 nM in presence of GABA EC1 to 1.5 by two-electrode voltage-clamp assay; type: cell-based; details: Oocyte
[15] = biological target: T1, Gamma-aminobutyric acid receptor subunit alpha-1/alpha-6/beta-3/gamma-2 (Rattus norvegicus); assay: Positive allosteric modulation of rat recombinant GABAA gamma2beta3alpha1-beta3alpha6 receptor expressed in Xenopus laevis oocytes assessed as maximal efficacy at -80 mV holding potential at 10 uM in presence of GABA EC1 to 1.5 by two-electrode voltage-clamp assay; type: cell-based; details: Oocyte, filed as positive allosteric modulator
[16] = biological target: T2, Gamma-aminobutyric acid receptor subunit alpha-1/beta-3/gamma-2 (Rattus norvegicus); assay: Positive allosteric modulation of rat recombinant GABAA alpha1beta3alpha1-gamma2beta3 receptor expressed in Xenopus laevis oocytes assessed as maximal efficacy at -80 mV holding potential at 30 uM in presence of GABA EC1 to 1.5 by two-electrode voltage-clamp assay; type: cell-based; details: Oocyte, filed as positive allosteric modulator
[17] = biological target: T4, Gamma-aminobutyric acid receptor subunit alpha-6/beta-3/gamma-2 (Rattus norvegicus); assay: Positive allosteric modulation of rat recombinant GABAA alpha6beta3alpha6-gamma2beta3 receptor expressed in Xenopus laevis oocytes assessed as maximal efficacy at -80 mV holding potential at 3 nM in presence of GABA EC1 to 1.5 by two-electrode voltage-clamp assay; type: cell-based; details: Oocyte
[18] = biological target: T1, Gamma-aminobutyric acid receptor subunit alpha-1/alpha-6/beta-3/gamma-2 (Rattus norvegicus); assay: Positive allosteric modulation of rat recombinant GABAA alpha6beta3alpha1-gamma2beta3 receptor expressed in Xenopus laevis oocytes assessed as maximal efficacy at -80 mV holding potential at 30 uM in presence of GABA EC1 to 1.5 by two-electrode voltage-clamp assay; type: cell-based; details: Oocyte, filed as positive allosteric modulator
[19] = biological target: T1, Gamma-aminobutyric acid receptor subunit alpha-1/alpha-6/beta-3/gamma-2 (Rattus norvegicus); assay: Positive allosteric modulation of rat recombinant GABAA gamma2beta3alpha1-beta3alpha6 receptor expressed in Xenopus laevis oocytes assessed as maximal efficacy at -80 mV holding potential at 300 nM in presence of GABA EC1 to 1.5 by two-electrode voltage-clamp assay; type: cell-based; details: Oocyte, filed as positive allosteric modulator
[20] = biological target: T4, Gamma-aminobutyric acid receptor subunit alpha-6/beta-3/gamma-2 (Rattus norvegicus); assay: Positive allosteric modulation of rat recombinant GABAA alpha6beta3alpha6-gamma2beta3 receptor expressed in Xenopus laevis oocytes assessed as maximal efficacy at -80 mV holding potential at 10 nM in presence of GABA EC1 to 1.5 by two-electrode voltage-clamp assay; type: cell-based; details: Oocyte
[21] = biological target: T1, Gamma-aminobutyric acid receptor subunit alpha-1/alpha-6/beta-3/gamma-2 (Rattus norvegicus); assay: Positive allosteric modulation of rat recombinant GABAA gamma2beta3alpha1-beta3alpha6 receptor expressed in Xenopus laevis oocytes assessed as maximal efficacy at -80 mV holding potential at 30 uM in presence of GABA EC1 to 1.5 by two-electrode voltage-clamp assay; type: cell-based; details: Oocyte, filed as positive allosteric modulator
[22] = biological target: Gamma-aminobutyric acid receptor subunit alpha-1/alpha-6/beta-3/gamma-2 (Rattus norvegicus, UniProt P18508+P30191+P62813+P63079); assay: as §1, with “gamma2beta3alpha1-beta3alpha6” for “alpha6beta3alpha6-gamma2beta3”; type: cell-based, Oocyte
[23] = biological target: T2, Gamma-aminobutyric acid receptor subunit alpha-1/beta-3/gamma-2 (Rattus norvegicus); assay: Positive allosteric modulation of rat recombinant GABAA alpha1beta3alpha1-gamma2beta3 receptor expressed in Xenopus laevis oocytes assessed as maximal efficacy at -80 mV holding potential at 3 uM in presence of GABA EC1 to 1.5 by two-electrode voltage-clamp assay; type: cell-based; details: Oocyte, filed as positive allosteric modulator

T3 sequence (P18508 whole entry): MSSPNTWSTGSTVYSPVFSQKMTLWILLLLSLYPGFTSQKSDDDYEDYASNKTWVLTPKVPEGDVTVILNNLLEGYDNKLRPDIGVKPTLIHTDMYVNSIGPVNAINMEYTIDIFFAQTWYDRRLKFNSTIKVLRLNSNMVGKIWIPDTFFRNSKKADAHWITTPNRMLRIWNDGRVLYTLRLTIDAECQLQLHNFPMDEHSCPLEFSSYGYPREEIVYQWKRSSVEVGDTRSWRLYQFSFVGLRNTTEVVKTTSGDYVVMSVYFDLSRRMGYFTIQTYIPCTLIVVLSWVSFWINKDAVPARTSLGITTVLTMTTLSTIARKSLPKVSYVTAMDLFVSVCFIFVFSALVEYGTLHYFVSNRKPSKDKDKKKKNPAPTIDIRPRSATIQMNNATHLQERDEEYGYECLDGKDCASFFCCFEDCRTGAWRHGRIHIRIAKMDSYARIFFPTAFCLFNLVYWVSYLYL
T3 sequence (P30191 whole entry): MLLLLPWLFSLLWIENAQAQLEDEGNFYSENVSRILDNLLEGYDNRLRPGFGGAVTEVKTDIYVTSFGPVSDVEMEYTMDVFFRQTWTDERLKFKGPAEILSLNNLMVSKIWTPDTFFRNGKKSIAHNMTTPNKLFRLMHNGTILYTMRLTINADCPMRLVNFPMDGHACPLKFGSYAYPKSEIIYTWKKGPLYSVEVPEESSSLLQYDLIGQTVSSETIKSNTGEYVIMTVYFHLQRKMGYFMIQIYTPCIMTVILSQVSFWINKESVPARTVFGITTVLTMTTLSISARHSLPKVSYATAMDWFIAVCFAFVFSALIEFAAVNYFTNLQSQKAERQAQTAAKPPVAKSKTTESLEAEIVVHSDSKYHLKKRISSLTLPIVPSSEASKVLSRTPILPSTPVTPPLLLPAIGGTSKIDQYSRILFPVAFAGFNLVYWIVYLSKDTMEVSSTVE
T3 sequence (P63079 whole entry): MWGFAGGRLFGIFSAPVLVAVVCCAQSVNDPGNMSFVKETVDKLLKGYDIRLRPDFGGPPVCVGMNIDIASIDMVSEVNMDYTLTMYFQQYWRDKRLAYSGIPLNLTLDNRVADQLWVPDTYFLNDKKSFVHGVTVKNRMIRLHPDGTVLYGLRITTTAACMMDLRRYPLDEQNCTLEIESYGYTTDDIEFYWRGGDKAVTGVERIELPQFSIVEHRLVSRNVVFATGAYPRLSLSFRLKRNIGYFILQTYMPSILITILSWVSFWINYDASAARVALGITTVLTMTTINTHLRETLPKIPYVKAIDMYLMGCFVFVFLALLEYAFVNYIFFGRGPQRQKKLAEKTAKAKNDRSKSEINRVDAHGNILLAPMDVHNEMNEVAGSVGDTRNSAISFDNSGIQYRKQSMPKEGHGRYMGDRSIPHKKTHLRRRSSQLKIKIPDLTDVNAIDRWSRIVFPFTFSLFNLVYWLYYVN
Sequence of Gamma-aminobutyric acid receptor subunit alpha-1/alpha-6/beta-3/gamma-2 (P18508 whole entry): as the sequence (P18508 whole entry) above
Sequence of Gamma-aminobutyric acid receptor subunit alpha-1/alpha-6/beta-3/gamma-2 (P30191 whole entry): as the sequence (P30191 whole entry) above
Sequence of Gamma-aminobutyric acid receptor subunit alpha-1/alpha-6/beta-3/gamma-2 (P62813 whole entry): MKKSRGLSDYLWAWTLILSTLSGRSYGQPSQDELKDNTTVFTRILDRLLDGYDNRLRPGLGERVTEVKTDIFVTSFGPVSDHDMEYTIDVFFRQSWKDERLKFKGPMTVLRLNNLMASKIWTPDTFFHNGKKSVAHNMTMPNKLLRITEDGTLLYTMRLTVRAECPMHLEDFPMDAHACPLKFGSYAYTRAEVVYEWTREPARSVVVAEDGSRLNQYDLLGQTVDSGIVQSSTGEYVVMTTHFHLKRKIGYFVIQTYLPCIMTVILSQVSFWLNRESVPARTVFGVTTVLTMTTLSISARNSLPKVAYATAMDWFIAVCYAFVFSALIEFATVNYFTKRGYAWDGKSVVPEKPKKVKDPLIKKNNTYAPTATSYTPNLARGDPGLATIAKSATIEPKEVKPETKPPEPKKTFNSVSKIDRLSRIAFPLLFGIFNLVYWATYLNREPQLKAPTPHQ
Sequence of Gamma-aminobutyric acid receptor subunit alpha-1/alpha-6/beta-3/gamma-2 (P63079 whole entry): as the sequence (P63079 whole entry) above

COc1ccc(-n2nc3c4ccc(Br)cc4[nH]cc-3c2=O)cc1
Efficacy [1]: 662% | Efficacy [2]: 18% | Efficacy [3]: 5% | Efficacy [4]: 363% | EC50 [5]: 9 nM | %max [6]: 342% | Efficacy [7]: 80% | Efficacy [8]: 16% | EC50 [9]: 24000 nM | Efficacy [10]: 185% | Efficacy [11]: 84% | Efficacy [12]: 2% | Efficacy [13]: 196% | Efficacy [14]: 24% | Efficacy [15]: 186% | Efficacy [16]: 242% | Efficacy [17]: 19% | Efficacy [18]: 838% | Efficacy [19]: 48% | Efficacy [20]: 33% | Efficacy [21]: 210% | EC50 [22]: 4 nM | Efficacy [23]: 95%
